Data as given in the supplement of paper PMC10307832.

Experiments:
Experiment in all cases: relative viability (nuclei count vs DMSO), 5 days (fraction); higher = more cells survive
Dactolisib + Crizotinib = compound: Cn1c(=O)n(-c2ccc(C(C)(C)C#N)cc2)c2c3cc(-c4cnc5ccccc5c4)ccc3ncc21 [Dactolisib] + C[C@@H](Oc1cc(-c2cnn(C3CCNCC3)c2)cnc1N)c1c(Cl)ccc(F)c1Cl [Crizotinib] (partner 1 µM)
Outline: (§1)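 Medians of duplicate plates are given as relative viability. That measure is the nuclei count in treated wells divided by the count in vehicle wells. Counts were taken on 4× images of lung cancer cell lines in 1536-well plates, 5 days after pin-tool dosing the day after seeding with one drug alone or a fixed anchor-drug dose plus five library-drug doses (not always all listed) in √10 steps.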

Dactolisib + Pemetrexed = compound: Cn1c(=O)n(-c2ccc(C(C)(C)C#N)cc2)c2c3cc(-c4cnc5ccccc5c4)ccc3ncc21 [Dactolisib] + Nc1nc2[nH]cc(CCc3ccc(C(=O)N[C@@H](CCC(=O)O)C(=O)O)cc3)c2c(=O)[nH]1 [Pemetrexed] (partner 0.2 µM)
Outline: as §1

AZ505 + Tozasertib = compound: C1CCC(CC1)N(CCNCCC2=C3C(=C(C=C2)O)NC(=O)CO3)C(=O)CCNCCC4=CC(=C(C=C4)Cl)Cl [AZ505] + Cc1cc(Nc2cc(N3CCN(C)CC3)nc(Sc3ccc(NC(=O)C4CC4)cc3)n2)n[nH]1 [Tozasertib] (partner 0.1 µM)
Outline: as §1

Dactolisib + Navitoclax = compound: Cn1c(=O)n(-c2ccc(C(C)(C)C#N)cc2)c2c3cc(-c4cnc5ccccc5c4)ccc3ncc21 [Dactolisib] + CC1(C)CCC(c2ccc(Cl)cc2)=C(CN2CCN(c3ccc(C(=O)NS(=O)(=O)c4ccc(N[C@H](CCN5CCOCC5)CSc5ccccc5)c(S(=O)(=O)C(F)(F)F)c4)cc3)CC2)C1 [Navitoclax] (partner 0.5 µM)
Outline: as §1

Row | Cell Line | relative viability (Dactolisib + Crizotinib; first compound 0.002 µM) | relative viability (Dactolisib + Crizotinib; first compound 0.006325 µM) | relative viability (Dactolisib + Crizotinib; first compound 0.02 µM) | relative viability (Dactolisib + Crizotinib; first compound 0.06325 µM) | relative viability (Dactolisib + Crizotinib; first compound 0.2 µM) | relative viability (Dactolisib + Pemetrexed; first compound 0.002 µM) | relative viability (Dactolisib + Pemetrexed; first compound 0.006325 µM) | relative viability (Dactolisib + Pemetrexed; first compound 0.02 µM) | relative viability (Dactolisib + Pemetrexed; first compound 0.06325 µM) | relative viability (Dactolisib + Pemetrexed; first compound 0.2 µM) | relative viability (AZ505 + Tozasertib; first compound 0.08 µM) | relative viability (AZ505 + Tozasertib; first compound 0.253 µM) | relative viability (AZ505 + Tozasertib; first compound 0.8 µM) | relative viability (AZ505 + Tozasertib; first compound 2.53 µM) | relative viability (AZ505 + Tozasertib; first compound 8 µM) | relative viability (Dactolisib + Navitoclax; first compound 0.002 µM) | relative viability (Dactolisib + Navitoclax; first compound 0.006325 µM) | relative viability (Dactolisib + Navitoclax; first compound 0.02 µM) | relative viability (Dactolisib + Navitoclax; first compound 0.06325 µM) | relative viability (Dactolisib + Navitoclax; first compound 0.2 µM)
1 | LCLC-97TM1 | 0.509 | 0.373 | 0.277 | 0.149 | 0.145 | 0.169 | 0.158 | 0.186 | 0.192 | 0.16 | 0.218 | 0.196 | 0.214 | 0.316 | 0.302 | 0.503 | 0.33 | 0.3 | 0.202 | 0.192
2 | PC-3 [JPC-3] | 1.08 | 0.979 | 0.916 | 0.874 | 0.768 | 1.35 | 1.11 | 1 | 1.26 | 0.555 | 0.83 | 0.919 | 0.87 | 0.848 | 0.867 | 0.796 | 0.787 | 0.879 | 0.742 | 0.509
3 | BEN | 0.785 | 0.77 | 0.859 | 0.467 | 0.296 | 0.714 | 0.757 | 0.603 | 0.639 | 0.434 | 0.443 | 0.545 | 0.458 | 0.504 | 0.426 | 0.114 | 0.0698 | 0.0623 | 0.0651 | 0.0432
4 | NCI-H1666 | 1.22 | 0.884 | 0.876 | 0.637 | 0.436 | 0.849 | 0.892 | 0.858 | 0.736 | 0.802 | 0.629 | 0.613 | 0.534 | 0.525 | 0.584 | 1.3 | 0.673 | 0.927 | 0.667 | 0.31
